According to paper PMC9745799, “Polymyxin Stereochemistry and Its Role in Antibacterial Activity and Outer Membrane Disruption” (ACS Infectious Diseases, 2022):
Converted amounts (≈) assume the structure as drawn. Positions of bridges follow the written chain, without caps; N, C: chain ends. Non-standard residues stand in square brackets, D forms with d. Residues, ends and D or L forms follow the SMILES beside them. *: point of attachment. dDab = NCC[C@@H](N)C(=O)O; Heptanoyl = CCCCCCC(=O)*

Experiments:
Format in all cases: cell-based
E. coli JW3596 (ΔwaaC) = settings: truncated LPS, CLSI microbroth dilution, CAMHB, 18 h, 37 °C, triplicate
Procedure: (§1) MICs of compounds were determined following CLSI guidelines using the microbroth dilution method in polypropylene plates. Selected Gram-negative bacterial strains (see Table S2 for strain sources) were taken from glycerol stocks and grown overnight on blood agar. Individual colonies were selected and grown in Tryptic Soy Broth (TSB) to an OD600 of 0.5. Compounds were diluted in Mueller Hinton Broth (MHB) supplemented with Mg^2+ and Ca^2+ at final concentrations of 12 and 20 mg/L, respectively (CAMHB). 50 μL was used for each well, and compounds were assessed in triplicates. Bacterial culture was diluted in CAMHB to 10^6 CFU/mL, yielding 5 × 10^5 CFU/mL upon addition of 50 μL of culture to 50 μL of compound solution. Positive and negative (sterility) controls were present on each plate. Plates were sealed with a semipermeable membrane and incubated for 22 h (A. baumannii) or 18 h (other strains) under shaking at 37 °C.

E. coli BW25113 = settings: E. coli BW25113; CLSI microbroth dilution, CAMHB, 18 h, 37 °C, triplicate
Procedure: as §1

E. coli JW3594 (ΔwaaD) = settings: truncated LPS, CLSI microbroth dilution, CAMHB, 18 h, 37 °C, triplicate
Procedure: as §1

P. aeruginosa ATCC 27853 = settings: P. aeruginosa ATCC 27853; CLSI microbroth dilution, CAMHB, 18 h, 37 °C, triplicate
Procedure: as §1

E. coli mcr-1 = settings: CLSI microbroth dilution, CAMHB, 18 h, 37 °C, triplicate
Procedure: as §1

P. aeruginosa NRZ03961 = settings: P. aeruginosa NRZ03961; CLSI microbroth dilution, CAMHB, 18 h, 37 °C, triplicate
Procedure: as §1

E. coli ATCC 25922 = settings: E. coli ATCC 25922
Procedure: as §1

Compound: CCCCCCC(=O)N[C@H](CCN)C(=O)N[C@@H](C(=O)N[C@H](CCN)C(=O)N[C@@H]1CCNC(=O)[C@@H]([C@H](C)O)NC(=O)[C@@H](CCN)NC(=O)[C@@H](CCN)NC(=O)[C@@H](CC(C)C)NC(=O)[C@H](Cc2ccccc2)NC(=O)[C@@H](CCN)NC1=O)[C@H](C)O [ent-PmxB4] (Heptanoyl-[dDab][dT][dDab][dDab][dDab]F[dL][dDab][dDab][dT]; lactam 4-C)
- MIC (E. coli JW3596 (ΔwaaC)): 128 µg/mL (≈ 109 µM)
- MIC (E. coli BW25113): >128 µg/mL
- MIC (E. coli JW3594 (ΔwaaD)): 128 µg/mL (≈ 109 µM)
- MIC (P. aeruginosa ATCC 27853): >128 µg/mL
- MIC (E. coli mcr-1): 128 µg/mL (≈ 109 µM)
- MIC (P. aeruginosa NRZ03961): >128 µg/mL
- MIC in presence of PMBN (E. coli ATCC 25922; + PMBN (8 ug/mL)): 128 µg/mL
- MIC in presence of SPR741 (E. coli ATCC 25922; + SPR741 (8 ug/mL)): 128 µg/mL
